In patent publication US20250074902A1, “FUSED BICYCLIC HETEROARYL AMIDE COMPOUND AS PROTEIN AGGREGATION INHIBITOR” (SHANGHAI JINGXIN BIOMEDICAL CO., LTD., priority 2021, published 2025):

Assays:
[1] = biological target: T1, α-synuclein (Homo sapiens, UniProt P37840); test: Detection of the ability of compounds to inhibit α-synuclein self-aggregation by HPLC; format: biochemical; conditions: test compound 200 μg/mL, α-synuclein 250 μg/ml, 37° C., 9 days; HPLC peak area of α-synuclein multimers vs model group; read-out: inhibition rate (%)
T1 construct: purchased Sino Biological
Description: The test compound (for poorly soluble compounds, dissolve with an appropriate amount of DMSO first) and fresh α-synuclein monomers (purchased from Sino Biological) were added to pure water to a final protein concentration of 250 μg/ml, and the concentration of the test compound was 200 μg/mL, followed by incubation at 37° C. for 9 days. The peak area of α-synuclein multimers after incubation was detected by HPLC and the inhibition rate was calculated. […] Inhibition rate=(peak area of model group−peak area of example group)/peak area of model group×100%.

[2] = Determination of half-life in C57BL/6 mice; format: in vivo; conditions: mouse, 2 mg/kg; male C57BL/6 mice, intravenous, 2 mpk, plasma
Description: C57BL/6 mice (male) were selected, and the compound of the present invention was intravenously administered at a dose of 2 mpk, About 0.03 mL of whole blood was collected from the mouse orbital venous plexus at 0 h before administration, 0.0833, 0.25, 0.5, 1, 2, 4, 6, 8 and 24 h after administration. The blood was placed in a centrifuge tube containing EDTA-K2 anticoagulant, and placed in crushed ice after collection. Centrifuge at 2000 g and 4° C. for 10 min within 0.5 hours, and 10 μL of plasma was quantitatively divided and placed in another clean centrifuge tube, placed in a −20° C. refrigerator, and the blood drug concentration was determined by LC-MS/MS method.

[3] = Determination of brain/plasma ratio; format: in vivo; conditions: mouse, male C57BL/6 mice, oral 10 mg/kg, ratio of average drug concentration in brain tissue to plasma
Description: Male C57BL/6 mice were used as research subjects, and brain perfusion technology was used to investigate the pharmacokinetic characteristics of the compound of the present invention transported through the blood-brain barrier, and the drug concentrations in the blood and brain tissue samples of mice after 0.25 h, 1 h, 4 h and 8 h were detected, and the ratio of the average drug concentrations in brain tissue and plasma was calculated.
Oral administration solution (1.000 mg·ml^−1) of the compound of the present invention was prepared:
Weigh 3.116 mg of the compound and place it in an EP tube, then add DMS 0.156 mL, Solutol 0.312 mL and ultrapure water 2.648 mL (the volume ratio of the three is 5:10:85, v:v:v), vortex ultrasound to fully dissolve it, and the final actual concentration is 1.000 mg·mL-1 of the clear administration solution.
C57BL/6 mice (male), purchased from Sibeifu (Beijing) Biotechnology Co., Ltd., experimental animal production license number: SCXK (Beijing) 2019-0010.
Fasting: Overnight fasting, no water withdrawal, feed provided 4 hours after medication.
Select qualified healthy C57BL/6 mice, 3 per group. After oral administration (10 mg/kg), about 150 μL of whole blood was collected from the orbital venous plexus of mice at 0.25 h, 1 h, 4 h and 8 h after medication and placed in a centrifuge tube containing EDTA-K2 anticoagulant. After administration, the mice were anesthetized about 1 minute before the scheduled time point, and brain perfusion was performed at 0.25 h, 1 h, 4 h and 8 h after administration. After perfusion, the mouse brain tissue samples were dissected with ophthalmic scissors and ophthalmic forceps, and the remaining blood on the tissue surface was immediately rinsed with ultrapure water within 5 min, wiped dry, weighed, and 4 times the volume of acetonitrile-water solution (10:90, v:v) was added and homogenized, and then the homogenate was placed in a −20° C. refrigerator for testing. The collected samples were placed in an ice bath during the entire experimental operation.
According to the time points specified in the above experimental protocol, about 150 μL of whole blood was collected from the orbital venous plexus of C57BL/6 mice after administration and placed in a 1.5 mL centrifuge tube containing EDTAN-K2. The collected whole blood was centrifuged at 2000 g, 4° C. for 10 min, and all plasma was divided and placed in another clean centrifuge tube, and then placed in a −20° C. refrigerator for testing.
Adjust the peristaltic pump device to ensure that it works normally, the liquid flows out smoothly and stably, and there is no air in the flow path. Anesthetize the mice after administration with a mixed anesthetic of 70% CO2 and 30% O2, After the animal is fully anesthetized, quickly open the chest cavity with surgical scissors to expose the heart. […] Turn on the peristaltic pump switch and perfuse for 2-5 minutes. The perfusion fluid is 100 U/1000 mL heparin sodium saline. After the perfusion is completed, use ophthalmic scissors and ophthalmic forceps to dissect the mouse brain tissue sample, immediately rinse the remaining blood on the tissue surface with ultrapure water within 5 minutes, wipe dry, weigh, add 4 times the volume of acetonitrile-water solution (10:90, v:v) and homogenize, and then place the homogenate in a −20° C. refrigerator for testing.
Calculate the ratio of the average drug concentration in brain tissue to that in plasma, i.e., the brain/plasma ratio.

Structure (SMILES)	inhibition at 200 µg/mL [1]	half-life [2]	Kp at 4 h [3]
CCCCC(Cc1c[nH]c2ccccc12)NC(=O)c1cnc(N2CCN(C)CC2)s1 (centres unmarked) [Comparative Example 1, reference compound]	–	23.4 min	0.35
CCCCC(Cc1c[nH]c2ccccc12)NC(=O)c1cc2c(C)nc(N3CCN(C)CC3)cc2s1 (centres unmarked) [Example 9, N-(1-(1H-indol-3-yl)hexane-2-yl)-4-methyl-6-(4-methylpiperazin-1-yl) thieno[3,2-c]pyridine-2-carboxamide]	78.1%	–	–
CCCCC(Cc1c[nH]c2ccccc12)NC(=O)c1sc2cc(N3CCN(C)CC3)ccc2c1C (centres unmarked) [Example 11, N-(1-(1H-indol-3-yl)hexane-2-yl)-3-methyl-6-(4-methylpiperazin-1-yl) benzo[b]thiophene-2-carboxamide]	73.4%	–	–
CCCCC(Cc1c[nH]c2ccccc12)NC(=O)c1cc2ccc(N3CCN(C)CC3=O)cc2s1 (centres unmarked) [Example 47, N-[1-(1H-indol-3-yl)hexane-2-yl]-6-(4-methyl-2-oxypiperazin-1-yl)-1-benzothiophene-2-carboxamide]	73.5%	–	–
CCOCCC(Cc1c[nH]c2ccccc12)NC(=O)c1cc2ccc(N3CCN(C)CC3)cc2s1 (centres unmarked) [Example 41, N-(4-ethoxy-1-(1H-indol-3-yl)butane-2-yl)-6-(4-methylpiperazin-1-yl) benzol[b]-thiophene-2-carboxamide]	82.5%	–	–
CCCCC(Cc1c[nH]c2ccncc12)NC(=O)c1cc2ccc(N3CCN(C)CC3)cc2s1 (centres unmarked) [Example 31, N-(1-(1H-pyrrole[3,2-c]pyridin-3-yl)hexane-2-yl)-6-(4-methylpiperazine-1-yl) benzo[b]thiophene-2-carboxamide]	95.3%	–	–
CC(C)=CCC(Cc1c[nH]c2ccccc12)NC(=O)c1cc2ccc(N3CCN(C)CC3)cc2s1 (centres unmarked) [Example 32, N-(1-(1H-indol-3-yl)-5-methyl-4-hexene-2-yl)-6-(4-methylpiperazin-1-yl) benzo[b]thiophene-2-carboxamide]	86.1%	–	–
CCCCC(Cc1c[nH]c2ccccc12)NC(=O)c1cc2ccc(N3CCN(C)CC3)cc2[nH]1 (centres unmarked) [Example 28, N-(1-(1H-indole-3-yl)hexane-2-yl)-6-(4-methylpiperazine-1-yl)-1H-indole-2-carboxamide]	73%	–	–
CCCCC(Cc1c[nH]c2ccccc12)NC(=O)c1cc2ccc(N3CCN(C)CC3)c(F)c2s1 (centres unmarked) [Example 17, 7-Fluoro-N-[1-(1H-indol-3-yl)hexyl-2-yl]-6-(4-methylpiperazin-1-yl)-1-benzothiophene-2-carboxamide]	98.2%	–	–

Next, values leading:

inhibition at 200 µg/mL [1]	half-life [2]	Kp at 4 h [3]	Structure (SMILES)
97.2%	70.2 min	2.05	CCCC[C@@H](Cc1c[nH]c2ccccc12)NC(=O)c1cc2ccc(N3CCN(C)CC3)cc2s1 [Example 42, (S)—N-(1-(1H-indol-3-yl)hexane-2-yl)-6-(4-methylpiperazin-1-yl) benzo[b]thiophene-2-carboxamide]
98.3%	133 min	1.53	CCCCC(Cc1c[nH]c2ccccc12)NC(=O)c1cc2ccc(N3CCN(C)CC3)cc2s1 (racemic) [Example 1, N-(1-(1H-indol-3-yl)hexane-2-yl)-6-(4-methylpiperazin-1-yl)benzo[b]thiophene-2-carboxamide]
96.3%	–	–	CCCCC(Cc1c[nH]c2ccccc12)NC(=O)c1cc2ccc(N3CCC(C)(C)CC3)cc2s1 (centres unmarked) [Example 16, N-(1-(1H-indol-3-yl)hexane-2-yl)-6-(4,4-dimethylpiperidin-1-yl) benzo[b]thiobene-2-carboxamide]
89.7%	–	–	CCCCC(Cc1c[nH]c2ccccc12)NC(=O)c1cc2ccc(N3CCC(N(C)C)CC3)cc2s1 (centres unmarked) [Example 24, N-(1-(1H-indol-3-yl)hexane-2-yl)-6-(4-(dimethylamino)piperidin-1-yl) benzo[b]thiophene-2-carboxamide]
96.2%	–	–	CCCCC(Cc1c[nH]c2ccccc12)NC(=O)c1cc2ccc(N3CCC(F)(F)CC3)cc2s1 (centres unmarked) [Example 15, N-(1-(1H-indol-3-yl)hexane-2-yl)-6-(4,4-difluoropiperidin-1-yl) benzo[b]thiophene-2-carboxamide]
90.8%	–	–	CCCCC(Cc1c[nH]c2ccccc12)NC(=O)c1cc2ccc(N3CC4(CN(C)C4)C3)cc2s1 (centres unmarked) [Example 25, N-(1-(1H-indol-3-yl)hexane-2-yl)-6-(6-methyl-2,6-diazaspiro [3.3]heptane-2-yl) benzo[b]thiophene-2-carboxamide]
95.3%	87.6 min	0.38	CCCCC(Cc1c[nH]c2ccccc12)NC(=O)c1cc2ccc(N3CCN(C4CC4)CC3)cc2s1 (centres unmarked) [Example 3, N-(1-(1H-indol-3-yl)hexane-2-yl)-6-(4-cyclopropylpiperazin-1-yl) benzo[b]-thiophene-2-carboxamide]
98.6%	79.2 min	1.7	CCCC[C@H](Cc1c[nH]c2ccccc12)NC(=O)c1cc2ccc(N3CCN(C)CC3)cc2s1 [Example 43, (R)—N-(1-(1H-indol-3-yl)hexane-2-yl)-6-(4-methylpiperazin-1-yl) benzo[b]thiophene-2-carboxamide]
